Measured values as given in patent publication US5459132A, “N6-[(Imidazo[1,2-a]pyridin-3-yl)ethyl]adenosines, their 5'-uronamide analogues and pharmaceutical compositions” (Laboratoires UPSA, priority 1994, dated 1995).

How the values were obtained:
[1] = tested on: mice; experiment: Phenylbenzoquinone test (analgesic activity); type: in vivo; details: one hour before phenylbenzoquinone injection, 5 minutes observation
Procedure: 2. Phenylbenzoquinone test
The intraperitoneal injection of phenylbenzoquinone causes twisting and stretching movements in mice. Analgesics prevent or reduce this syndrome, which can be considered as the exteriorization of diffuse abdominal pain.
A 0.02% solution of phenylbenzoquinone in water is administered in a volume of 1 ml/100 g.
The products of the Examples are administered orally one hour before the injection of phenylbenzoquinone.
The stretching and twisting movements are counted for each mouse over an observation period of 5 minutes.

[2] = tested on: Balbc 3T3 fibroblasts; experiment: Inhibition of the cell proliferation induced by a growth factor (PDGF) in Balbc 3T3 fibroblasts, ^3H-thymidine incorporation; type: cell-based; details: for % inhibition of the incorporation of ^3H-thymidine stimulated by PDGF, 1E-6M: test molecule 1E-6M
Procedure: Measurement of the inhibition of the cell proliferation induced by a growth factor in Balbc […] 3T3 fibroblasts
Inhibition of the cell proliferation induced by a growth factor (for example PDGF) is evaluated by measuring the incorporation of ^3 H-thymidine into Balbc 3T3 fibroblasts.
The Balbc 3T3 fibroblasts are cultivated at 37° C. with 5% of CO2 up to the point of subconfluence and are then placed for 18 hours under rest conditions in a serum-impoverished medium. They are subsequently pretreated for one hour with the test molecule (10^-5 M and/or 10^-6 M) and then stimulated for 22 hours with a growth factor (for example PDGF). ^3 H-Thymidine is incorporated over the last 2 hours. All these steps are performed at 37° C. with 5% of CO2.
The reaction is terminated by sucking off the reaction medium, detaching the cells and then filtering the lyzed cells through glass fiber filters.
The results are expressed as the percentage inhibition of the stimulation of ^3 H-thymidine incorporation induced by the growth factor.

Compound | Phenylbenzoquinone test % inhibition at 30 mg/kg p.o. [1] [%] | % inhibition of the incorporation of ^3H-thymidine stimulated by PDGF, 1E-6M [2] [%] | % inhibition of the incorporation of ^3H-thymidine stimulated by PDGF, 1E-5M ([2]; test molecule 1E-5M) [%]
O=C(NC1CC1)[C@H]1O[C@@H](n2cnc3c(NCCc4cnc5c(OCc6ccccc6)cccn45)ncnc32)[C@H](O)[C@@H]1O [Example 33, β-D-Ribofuranuronamido-N-cyclopropyl-1-deoxy-1-[6-[[2-[8-(phenylmethoxy)imidazo[1,2-a]pyridin-3-yl]ethyl]amino]-9H-purin-9-yl]] | 39 | – | –
Cc1ccc(C)c(COc2cccn3c(CCNc4ncnc5c4ncn5[C@@H]4O[C@H](C(=O)NC5CC5)[C@@H](O)[C@H]4O)cnc23)c1 [Example 34, β-D-Ribofuranuronamido-N-cyclopropyl-1-deoxy-1-[6-[[2-[[8-(2,5-dimethylphenyl)methoxy]imidazo[1,2-a]pyridin-3-yl]ethyl]amino]-9H-purin-9-yl]] | 57 | 72 | –
COCCOc1cccn2c(CCNc3ncnc4c3ncn4[C@@H]3O[C@H](C(=O)NC4CC4)[C@@H](O)[C@H]3O)cnc12 [Example 35, β-D-Ribofuranuronamido-N-cyclopropyl-1-deoxy-1-[6-[[2-[8-(2-methoxyethoxy)imidazo[1,2-a]pyridin-3-yl]ethyl]amino]-9H-purin-9-yl]] | 25 | – | –
Cc1ccc(C)c(COc2cccn3c(CCNc4ncnc5c4ncn5[C@@H]4O[C@H](C(=O)NC5CC5)[C@@H](O)[C@H]4O)c(C)nc23)c1 [Example 36, β-D-Ribofuranuronamido-N-cyclopropy-1-deoxy-1-[6-[[2-[[8-(2,5-dimethylphenyl)methoxy]-2-methylimidazo[1,2-a]pyridin-3-yl]ethyl]amino]-9H-purin-9-yl]] | 63 | 80 | –
O=C(NC1CC1)[C@H]1O[C@@H](n2cnc3c(NCCc4cnc5c(OC6CCCC6)cccn45)ncnc32)[C@H](O)[C@@H]1O [Example 37, β-D-Ribofuranuronamido-N-cyclopropyl-1-deoxy-1-[6-[[2-[8-(cyclopentoxy)imidazo[1,2-a]pyridin-3-yl]ethyl]amino]-9H-purin-9-yl]] | 57 | – | 63
